One may read the Dmax as the largest share of the target that was removed. The low end stands for a partial loss of target, the high end for a fuller loss of target. The DC50 is the concentration giving 50% degradation.

The experiment deals with SMARCA2 (Homo sapiens, UniProt P51531). Put plainly: MSD SMARCA2 degradation in NCI-H1299 cell line (24 h). The class given is cell-based. Also on record: HC: NCI-H1299 cells treated with DMSO; host or cells: NCI-H1299. The note with it: for Dmax: NCI-H1299, NCI-H1299 cells; for DC50: NCI-H1299 cells, read-out: SMARCA2 MSD H1299 degradation 24 h: External Abs-DC50. In short, it runs like this: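 NCI-H1299 cells treated 24 h with a 3-fold, 9-point compound dilution series, then lysed in RIPA with protease inhibitor. SMARCA2 in lysate-coated MSD plates detected with rabbit anti-SMARCA2 (0.3 ug/ml) and SULFO-TAG secondary. Relative SMARCA2 level normalized between DMSO-treated H1299 cells and SMARCA2-negative A2780 cells; Dmax % binned A–D.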
Chain of SMARCA2 (P51531 whole entry): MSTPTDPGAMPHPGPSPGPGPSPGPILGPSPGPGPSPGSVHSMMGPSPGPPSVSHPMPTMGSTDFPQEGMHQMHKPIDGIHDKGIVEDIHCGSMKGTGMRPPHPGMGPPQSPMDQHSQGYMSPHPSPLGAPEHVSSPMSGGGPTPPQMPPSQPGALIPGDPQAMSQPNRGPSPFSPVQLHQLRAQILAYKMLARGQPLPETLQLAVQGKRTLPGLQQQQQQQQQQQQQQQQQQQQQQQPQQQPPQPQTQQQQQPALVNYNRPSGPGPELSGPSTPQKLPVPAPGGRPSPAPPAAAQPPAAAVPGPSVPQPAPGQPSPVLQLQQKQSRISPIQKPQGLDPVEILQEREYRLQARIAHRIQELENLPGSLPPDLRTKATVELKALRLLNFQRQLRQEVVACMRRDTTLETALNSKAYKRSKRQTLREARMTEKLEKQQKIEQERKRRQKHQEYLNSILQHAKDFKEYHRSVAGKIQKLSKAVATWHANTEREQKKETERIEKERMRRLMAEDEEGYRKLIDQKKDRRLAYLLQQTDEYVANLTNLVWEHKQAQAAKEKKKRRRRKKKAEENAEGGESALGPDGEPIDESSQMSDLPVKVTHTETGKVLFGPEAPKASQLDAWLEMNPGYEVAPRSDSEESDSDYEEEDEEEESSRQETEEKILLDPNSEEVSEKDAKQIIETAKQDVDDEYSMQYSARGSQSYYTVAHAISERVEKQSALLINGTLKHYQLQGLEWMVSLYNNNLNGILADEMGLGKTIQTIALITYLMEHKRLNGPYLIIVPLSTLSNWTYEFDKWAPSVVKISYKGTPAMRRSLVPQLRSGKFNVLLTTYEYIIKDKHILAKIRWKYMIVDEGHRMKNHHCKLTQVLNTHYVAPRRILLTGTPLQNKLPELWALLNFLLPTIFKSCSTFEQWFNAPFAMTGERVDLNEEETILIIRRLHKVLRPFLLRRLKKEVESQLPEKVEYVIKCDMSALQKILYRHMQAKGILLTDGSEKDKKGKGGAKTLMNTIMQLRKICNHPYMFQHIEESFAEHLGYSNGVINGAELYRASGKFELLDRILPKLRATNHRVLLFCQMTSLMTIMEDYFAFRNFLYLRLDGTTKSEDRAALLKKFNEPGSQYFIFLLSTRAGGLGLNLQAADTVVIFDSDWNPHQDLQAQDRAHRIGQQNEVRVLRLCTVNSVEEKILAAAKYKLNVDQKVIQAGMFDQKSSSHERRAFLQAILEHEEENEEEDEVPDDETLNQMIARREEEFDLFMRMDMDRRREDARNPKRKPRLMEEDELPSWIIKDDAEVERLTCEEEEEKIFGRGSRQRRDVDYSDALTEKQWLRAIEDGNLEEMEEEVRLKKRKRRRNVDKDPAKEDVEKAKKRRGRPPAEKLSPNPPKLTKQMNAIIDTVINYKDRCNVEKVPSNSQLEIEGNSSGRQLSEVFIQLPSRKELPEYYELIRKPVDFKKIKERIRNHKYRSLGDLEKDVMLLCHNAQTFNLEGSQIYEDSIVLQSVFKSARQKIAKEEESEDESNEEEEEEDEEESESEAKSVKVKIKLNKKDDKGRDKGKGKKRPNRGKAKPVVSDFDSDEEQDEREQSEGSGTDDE

A value given as a limit tells only on which side of the number the result lay.

Turning to `CN1C(=O)CCC(n2c(=O)n(C)c3c(CCCOCCOCCNCc4ccc(N5CCN(c6cc(-c7ccccc7O)nnc6N)CC5)cc4)cccc32)C1=O` (centres unmarked) [I-113], the Dmax was below 50% and the DC50 is above 1000 nM.
For `CN(Cc1ccc(N2CCN(c3cc(-c4ccccc4O)nnc3N)CC2)cc1)CC1CCN(c2ccc3c(c2)n(C)c(=O)n3C2CCC(=O)NC2=O)CC1` (centres unmarked) [I-114] the same measures were 50 to 70% and below 100 nM.
For `Cn1c(=O)n(C2CCC(=O)NC2=O)c2cccc(CCCOC3CCN(Cc4ccc(N5CCN(c6cc(-c7ccccc7O)nnc6N)CC5)cc4)CC3)c21` (centres unmarked) [I-115], in that order: 70 to 90% and 100 to 500 nM.
For `Nc1nnc(-c2ccccc2O)cc1N1CCN(c2ccc(CNCCOCCCc3cccc4c3oc(=O)n4C3CCC(=O)NC3=O)cc2)CC1` (centres unmarked) [I-116] the same measures were 50 to 70% and 501 to 1000 nM.
Take `CN(Cc1ccc(N2CCN(c3cc(-c4ccccc4O)nnc3N)CC2)cc1)C[C@@H]1CN(CCCc2cccc3c2n(C)c(=O)n3C2CCC(=O)NC2=O)CCO1` (some centres unmarked) [I-117]: the Dmax lay within 70 to 90% and the 50% degradation concentration (DC50) was in the range of 100 to 500 nM.
For `Cn1c(=O)n(C2CCC(=O)NC2=O)c2cccc(C#CCN3CCO[C@H](CNCc4ccc(N5CCN(c6cc(-c7ccccc7O)nnc6N)CC5)cc4)C3)c21` (some centres unmarked) [I-118], in that order: below 50% and above 1000 nM.
For the molecule `CN(CCCCOCCCCc1cccc2c1n(C)c(=O)n2C1CCC(=O)NC1=O)Cc1ccc(N2CCN(c3cc(-c4ccccc4O)nnc3N)CC2)cc1` (centres unmarked) [I-119], the Dmax was 70 to 90% and the DC50 was 100 to 500 nM.
For `Cn1c(=O)n(C2CCC(=O)NC2=O)c2ccc(CCCN3CCO[C@@H](CNCc4ccc(N5CCN(c6cc(-c7ccccc7O)nnc6N)CC5)cc4)C3)cc21` (some centres unmarked) [I-120], the Dmax lay in the range of 50 to 70% and the DC50 was 501 to 1000 nM.
Regarding `Cn1c(=O)n(C2CCC(=O)NC2=O)c2cccc(CCCO[C@H]3C[C@H](N(C)Cc4ccc(N5CCN(c6cc(-c7ccccc7O)nnc6N)CC5)cc4)C3)c21` (some centres unmarked) [I-121], the greatest degradation seen (Dmax) was 70 to 90% and the DC50 is below 100 nM.
As for `CN(CCCCc1ccc2c(c1)n(C)c(=O)n2C1CCC(=O)NC1=O)Cc1ccc(N2CCN(c3cc(-c4ccccc4O)nnc3N)CC2)cc1` (centres unmarked) [I-122], the Dmax is below 50% and the DC50 was above 1000 nM.
For `CN(CCOCCOCCCc1ccc2c(c1)oc(=O)n2C1CCC(=O)NC1=O)Cc1ccc(N2CCN(c3cc(-c4ccccc4O)nnc3N)CC2)cc1` (centres unmarked) [I-123], in that order: 70 to 90% and 100 to 500 nM.
For `Cn1c(=O)n(C2CCC(=O)NC2=O)c2cccc(CCCOCC3CN(Cc4ccc(N5CCN(c6cc(-c7ccccc7O)nnc6N)CC5)cc4)C3)c21` (centres unmarked) [I-124] the same measures were 70 to 90% and 100 to 500 nM.
For `CN(CCOCCCc1ccc2c(c1)n(C)c(=O)n2C1CCC(=O)NC1=O)Cc1ccc(N2CCN(c3cc(-c4ccccc4O)nnc3N)CC2)cc1` (centres unmarked) [I-125], in that order: below 50% and above 1000 nM.
Consider `Nc1nnc(-c2ccccc2O)cc1N1CCN(c2ccc(CNCCOCCOCCCc3ccc4c(c3)oc(=O)n4C3CCC(=O)NC3=O)cc2)CC1` (centres unmarked) [I-126], for which the Dmax is above 90% and the DC50 is 100 to 500 nM.
For `Nc1nnc(-c2ccccc2O)cc1N1CCN(c2ccc(CNCCCOCCCc3ccc4c(c3)oc(=O)n4C3CCC(=O)NC3=O)cc2)CC1` (centres unmarked) [I-127], the Dmax fell in the range of 50 to 70% and the DC50 is above 1000 nM.
In the case of `Cn1c(=O)n(C2CCC(=O)NC2=O)c2ccc(CCCCOCCCCNCc3ccc(N4CCN(c5cc(-c6ccccc6O)nnc5N)CC4)cc3)cc21` (centres unmarked) [I-128], the Dmax was above 90% and the 50% degradation concentration (DC50) is below 100 nM.
For `CC(C)(CCOCCCc1cccc2c1oc(=O)n2C1CCC(=O)NC1=O)NCc1ccc(N2CCN(c3cc(-c4ccccc4O)nnc3N)CC2)cc1` (centres unmarked) [I-129], in that order: above 90% and above 1000 nM.
As for `Cn1c(=O)n(C2CCC(=O)NC2=O)c2ccc(CN3CCN(CCO[C@H]4C[C@H](NCc5ccc(N6CCN(c7cc(-c8ccccc8O)nnc7N)CC6)cc5)C4)CC3)cc21` (some centres unmarked) [I-131], the Dmax fell in the range of 70 to 90% and the DC50 is above 1000 nM.
For `CN(Cc1ccc(N2CCN(c3cc(-c4ccccc4O)nnc3N)CC2)cc1)CC1CCN(Cc2cccc3c2n(C)c(=O)n3C2CCC(=O)NC2=O)CC1` (centres unmarked) [I-132, 3-(4-((4-(((4-(4-(3-amino-6-(2-hydroxyphenyl)pyridazin-4-yl)piperazin-1-yl)benzyl)(methyl)amino)methyl)piperidin-1-yl)methyl)-3-methyl-2-oxo-2,3-dihydro-1H-benzo[d]imidazol-1-yl)piperidine-2,6-dione], in that order: above 90% and below 100 nM.
Turning to `Cn1c(=O)n(C2CCC(=O)NC2=O)c2cccc(CCCOCCOCCOCCOCCN3CCN(Cc4ccc(-c5cc(-c6ccccc6O)nnc5N)cc4)CC3)c21` (centres unmarked) [I-133], the maximal degradation (Dmax) is below 50% and the DC50 is above 1000 nM.
For `Cn1c(=O)n(C2CCC(=O)NC2=O)c2ccc(CCCOCCOCCOCCN3CCN(Cc4ccc(-c5cc(-c6ccccc6O)nnc5N)cc4)CC3)cc21` (centres unmarked) [I-134], in that order: 50 to 70% and 100 to 500 nM.
With `Cn1c(=O)n(C2CCC(=O)NC2=O)c2ccc(CCCOCCOCCN3CCN(Cc4ccc(-c5cc(-c6ccccc6O)nnc5N)cc4)CC3)cc21` (centres unmarked) [I-135], the Dmax is 50 to 70% and the half-maximal degradation concentration (DC50) was in the range of 100 to 500 nM.
For `Cn1c(=O)n(C2CCC(=O)NC2=O)c2ccc(CCCOCCCOCCN3CCN(Cc4ccc(-c5cc(-c6ccccc6O)nnc5N)cc4)CC3)cc21` (centres unmarked) [I-136] the same measures were 50 to 70% and 100 to 500 nM.
For `Cn1c(=O)n(C2CCC(=O)NC2=O)c2ccc(C#CCOCCOCCN3CCN(Cc4ccc(-c5cc(-c6ccccc6O)nnc5N)cc4)CC3)cc21` (centres unmarked) [I-137] the same measures were below 50% and above 1000 nM.
On to `Cn1c(=O)n(C2CCC(=O)NC2=O)c2ccc(CCCOCCCCN3CCN(Cc4ccc(-c5cc(-c6ccccc6O)nnc5N)cc4)CC3)cc21` (centres unmarked) [I-138], for which the Dmax lay in the range of 50 to 70% and the DC50 is below 100 nM.
For the molecule `Cn1c(=O)n(C2CCC(=O)NC2=O)c2ccc(CCCN3CCN(Cc4ccc(-c5cc(-c6ccccc6O)nnc5N)cc4)CC3)cc21` (centres unmarked) [I-139], the Dmax was 50 to 70% and the DC50 was below 100 nM.
For `Cn1c(=O)n(C2CCC(=O)NC2=O)c2cccc(CCCOCCCN3CCN(Cc4ccc(-c5cc(-c6ccccc6O)nnc5N)cc4)CC3)c21` (centres unmarked) [I-140], in that order: 70 to 90% and below 100 nM.
As to `Cn1c(=O)n(C2CCC(=O)NC2=O)c2ccc(COCCCN3CCN(Cc4ccc(-c5cc(-c6ccccc6O)nnc5N)cc4)CC3)cc21` (centres unmarked) [I-141], the maximal degradation (Dmax) was below 50% and the 50% degradation concentration (DC50) was in the range of 100 to 500 nM.
For `Cn1c(=O)n(C2CCC(=O)NC2=O)c2ccc(CCCCCCCCOc3cccc(CN4CCN(c5cc(-c6ccccc6O)nnc5N)CC4)c3)cc21` (centres unmarked) [I-142] the same measures were below 50% and above 1000 nM.
`Cn1c(=O)n(C2CCC(=O)NC2=O)c2ccc(CCCCCCCCCOc3cccc(CN4CCN(c5cc(-c6ccccc6O)nnc5N)CC4)c3)cc21` (centres unmarked) [I-143]: the Dmax is below 50% and the DC50 is above 1000 nM.
Consider `Cn1c(=O)n(C2CCC(=O)NC2=O)c2ccc(CCCCCCCCCCOc3cccc(CN4CCN(c5cc(-c6ccccc6O)nnc5N)CC4)c3)cc21` (centres unmarked) [I-144], for which the maximal degradation (Dmax) was 50 to 70% and the half-maximal degradation concentration (DC50) was above 1000 nM.
For `Cn1c(=O)n(C2CCC(=O)NC2=O)c2ccc(CCCCCCCCCCCOc3cccc(CN4CCN(c5cc(-c6ccccc6O)nnc5N)CC4)c3)cc21` (centres unmarked) [I-145], the maximal degradation (Dmax) is below 50% and the 50% degradation concentration (DC50) was above 1000 nM.
For `Cn1c(=O)n(C2CCC(=O)NC2=O)c2ccc(CCCCCCCN3CCC(Cn4cc(-c5cc(-c6ccccc6O)nnc5N)cn4)CC3)cc21` (centres unmarked) [I-146] the same measures were 70 to 90% and below 100 nM.
For the molecule `Cn1c(=O)n(C2CCC(=O)NC2=O)c2ccc(CCCCCCCCN3CCC(Cn4cc(-c5cc(-c6ccccc6O)nnc5N)cn4)CC3)cc21` (centres unmarked) [I-147], the Dmax lay in the range of 70 to 90% and the DC50 is 100 to 500 nM.
For `Cn1c(=O)n(C2CCC(=O)NC2=O)c2ccc(CCCCCCCCCN3CCC(Cn4cc(-c5cc(-c6ccccc6O)nnc5N)cn4)CC3)cc21` (centres unmarked) [I-148] the same measures were above 90% and below 100 nM.
In the case of `Cn1c(=O)n(C2CCC(=O)NC2=O)c2cccc(CCCCCCCN3CCC(Cn4cc(-c5cc(-c6ccccc6O)nnc5N)cn4)CC3)c21` (centres unmarked) [I-149, 3-[4-[7-[4-[[4-[3-amino-6-(2-hydroxyphenyl)pyridazin-4-yl]pyrazol-1-yl]methyl]-1-piperidyl]heptyl]-3-methyl-2-oxo-benzimidazol-1-yl]piperidine-2,6-dione], the maximal degradation (Dmax) was above 90% and the DC50 is below 100 nM.
For `Cn1c(=O)n(C2CCC(=O)NC2=O)c2cccc(CCCCCCCCN3CCC(Cn4cc(-c5cc(-c6ccccc6O)nnc5N)cn4)CC3)c21` (centres unmarked) [I-150] the same measures were above 90% and below 100 nM.
On to `Cn1c(=O)n(C2CCC(=O)NC2=O)c2cccc(CCCCCCCCCN3CCC(Cn4cc(-c5cc(-c6ccccc6O)nnc5N)cn4)CC3)c21` (centres unmarked) [I-151], for which the Dmax was above 90% and the DC50 is 100 to 500 nM.
For `Cn1c(=O)n(C2CCC(=O)NC2=O)c2ccc(CCCCCCCCc3cccc(CN4CCN(c5cc(-c6ccccc6O)nnc5N)CC4)c3)cc21` (centres unmarked) [I-152, 3-(5-(8-(3-((4-(3-amino-6-(2-hydroxyphenyl)pyridazin-4-yl)piperazin-1-yl)methyl)phenyl)octyl)-3-methyl-2-oxo-2,3-dihydro-1H-benzo[d]imidazol-1-yl) piperidine-2,6-dione], in that order: below 50% and above 1000 nM.
Regarding `Cn1c(=O)n(C2CCC(=O)NC2=O)c2ccc(CCCOCCCN3CCN(Cc4ccc(-c5cc(-c6ccccc6O)nnc5N)cc4)CC3)cc21` (centres unmarked) [I-153], the maximal degradation (Dmax) lay in the range of 50 to 70% and the half-maximal degradation concentration (DC50) was below 100 nM.

These data come from US12624044B2, “SMARCA degraders and uses thereof” (Kymera Therapeutics, Inc., priority 2019, dated 2026).
